Laboratory results: ChEMBL document CHEMBL6134780, “Halogenated retinoid derivatives as dual RARα and RXRα modulators for treating acute promyelocytic leukemia cells” (Eur J Med Chem, 2024)
Active and inactive are the calls of the source. No cut-off for these calls is given here.

Experiments:
[1] = system: NB-4; assay: Induction of apoptosis in human NB4 cells assessed as increase in cleaved-PARP expression at 2 uM incubated for 3 to 24 hrs by Western blot analysis; assay type: functional, cell-based; conditions: time 3-24 hrs
[2] = system: ATRA-resistant NB4-LR2; assay: Antiproliferative activity against human ATRA-resistant NB4-LR2 cells assessed as effect on cell viability up to 2 uM incubated for 3 days by CCK8 assay; assay type: functional, cell-based; conditions: time 3.0 day
[3] = system: NB-4; assay: Antiproliferative activity against human NB4 cells assessed as inhibition of cell viability up to 3.5 uM incubated for 3 days by CCK8 assay relative to control; assay type: functional; conditions: time 3 day
[4] = system: HeLa; assay: Induction of 3-flag-tagged PML-RARalpha R276E mutant (unknown origin) degradation transfected in human HeLa cells at 1 to 2 uM incubated for 24 hrs by Western blot analysis; assay type: cell-based; conditions: dose 1-2 µM
[5] = biological target: Oxysterols receptor LXR-beta (Homo sapiens) (UniProt P55055); assay: Agonist activity at Gal4-fused full length LXRbeta LBD (unknown origin) transfected in HEK293T cells co-transfected with pG5luc reporter and Renilla-luc at 0.1 to 1 uM incubated for 12 hrs by luciferase reporter gene assay; assay type: cell-based; conditions: dose 0.1-1 µM
Sequence of Oxysterols receptor LXR-beta (Homo sapiens) (P55055 whole entry, the tested form may be a part): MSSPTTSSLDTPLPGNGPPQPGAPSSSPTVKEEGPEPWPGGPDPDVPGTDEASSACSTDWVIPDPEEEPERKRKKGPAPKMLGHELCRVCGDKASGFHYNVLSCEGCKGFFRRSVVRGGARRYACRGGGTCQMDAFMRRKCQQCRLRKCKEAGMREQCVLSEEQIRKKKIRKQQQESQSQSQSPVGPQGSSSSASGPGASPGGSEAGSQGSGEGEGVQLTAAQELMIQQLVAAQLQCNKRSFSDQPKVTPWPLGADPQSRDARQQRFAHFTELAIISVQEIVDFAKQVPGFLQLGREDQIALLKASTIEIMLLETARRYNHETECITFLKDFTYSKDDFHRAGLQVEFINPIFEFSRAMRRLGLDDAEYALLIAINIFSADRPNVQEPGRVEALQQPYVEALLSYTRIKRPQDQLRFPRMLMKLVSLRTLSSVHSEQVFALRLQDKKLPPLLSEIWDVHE

[6] = biological target: T1, Retinoic acid receptor gamma (Homo sapiens) (UniProt P13631); assay: Agonist activity at Gal4-fused full length human RARgamma LBD transfected in HEK293T cells co-transfected with pG5luc reporter and Renilla-luc assessed as transactivation by measuring maximal efficacy incubated for 12 hrs by dual luciferase reporter gene assay relative to control; assay type: cell-based
T1 sequence (whole entry): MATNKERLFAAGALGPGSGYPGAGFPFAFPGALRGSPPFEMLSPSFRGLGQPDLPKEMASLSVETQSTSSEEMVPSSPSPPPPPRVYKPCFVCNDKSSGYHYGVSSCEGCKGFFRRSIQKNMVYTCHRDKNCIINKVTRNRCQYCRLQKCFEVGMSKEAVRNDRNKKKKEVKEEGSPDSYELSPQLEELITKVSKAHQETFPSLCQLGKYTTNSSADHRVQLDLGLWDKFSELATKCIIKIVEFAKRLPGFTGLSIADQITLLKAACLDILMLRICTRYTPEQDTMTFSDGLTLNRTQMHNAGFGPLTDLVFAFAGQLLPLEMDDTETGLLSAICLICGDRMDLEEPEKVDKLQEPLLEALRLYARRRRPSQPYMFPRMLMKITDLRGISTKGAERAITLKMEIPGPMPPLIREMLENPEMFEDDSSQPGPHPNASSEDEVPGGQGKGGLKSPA

[7] = system: NB-4; assay: Cell cycle arrest in human NB4 cells assessed as accumulation of cells at S phase at 0.5 uM incubated for 6 days for DAPI staining based flow cytometric analysis (reference value: 27 %); assay type: functional; conditions: time 6 day
[8] = system: ATRA-resistant NB4-LR2; assay: Cell cycle arrest in human ATRA-resistant NB4-LR2 cells assessed as increase in cyclin B1 expression at 2 uM incubated for 3 to 24 hrs by Western blot analysis; assay type: functional, cell-based; conditions: time 3-24 hrs
[9] = system: HEK293T; assay: Agonist activity at full length RARalpha LBD R276E mutant (unknown origin) transfected in HEK293T cells co-transfected with pG5luc reporter and Renilla-luc at 1 uM incubated for 12 hrs by luciferase reporter gene assay; assay type: cell-based; conditions: Homo sapiens
[10] = system: K562; assay: Induction of apoptosis in human K562 cells assessed as necrotic cells at 2 uM incubated for 24 hrs by Annexin V-FITC/PI staining based flow cytometric analysis (reference value: 2.19 %); assay type: functional
[11] = biological target: T2, Retinoic acid receptor alpha (Homo sapiens, UniProt P10276); assay: Binding affinity to N-terminal His-tagged human RARalpha LBD extracted from Escherichia coli BL21 (DE3) cells assessed as dissociation constant by fluorescence quenching assay
T2 sequence (P10276 whole entry): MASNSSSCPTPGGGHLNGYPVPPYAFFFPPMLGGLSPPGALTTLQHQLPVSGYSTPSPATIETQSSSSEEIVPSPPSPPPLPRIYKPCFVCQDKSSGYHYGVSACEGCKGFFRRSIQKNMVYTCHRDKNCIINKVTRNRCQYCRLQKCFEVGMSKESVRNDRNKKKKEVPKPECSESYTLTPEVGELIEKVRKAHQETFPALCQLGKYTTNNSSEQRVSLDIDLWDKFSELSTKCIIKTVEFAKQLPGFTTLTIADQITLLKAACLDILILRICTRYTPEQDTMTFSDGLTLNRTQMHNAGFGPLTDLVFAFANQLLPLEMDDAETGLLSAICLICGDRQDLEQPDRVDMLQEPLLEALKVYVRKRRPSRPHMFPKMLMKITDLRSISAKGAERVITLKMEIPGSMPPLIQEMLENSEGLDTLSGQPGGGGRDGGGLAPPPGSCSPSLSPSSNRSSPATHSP

[12] = biological target: T3, Retinoic acid receptor RXR-beta (Homo sapiens) (UniProt P28702); assay: Competitive binding affinity to Gal4-fused full length RXRbeta LBD (unknown origin) transfected in HEK293T cells co-transfected with pG5luc reporter and Renilla-luc at 0.1 to 1 uM incubated for 12 hrs in presence of ATRA by luciferase reporter gene assay; assay type: cell-based; conditions: dose 0.1-1 µM
T3 sequence (whole entry): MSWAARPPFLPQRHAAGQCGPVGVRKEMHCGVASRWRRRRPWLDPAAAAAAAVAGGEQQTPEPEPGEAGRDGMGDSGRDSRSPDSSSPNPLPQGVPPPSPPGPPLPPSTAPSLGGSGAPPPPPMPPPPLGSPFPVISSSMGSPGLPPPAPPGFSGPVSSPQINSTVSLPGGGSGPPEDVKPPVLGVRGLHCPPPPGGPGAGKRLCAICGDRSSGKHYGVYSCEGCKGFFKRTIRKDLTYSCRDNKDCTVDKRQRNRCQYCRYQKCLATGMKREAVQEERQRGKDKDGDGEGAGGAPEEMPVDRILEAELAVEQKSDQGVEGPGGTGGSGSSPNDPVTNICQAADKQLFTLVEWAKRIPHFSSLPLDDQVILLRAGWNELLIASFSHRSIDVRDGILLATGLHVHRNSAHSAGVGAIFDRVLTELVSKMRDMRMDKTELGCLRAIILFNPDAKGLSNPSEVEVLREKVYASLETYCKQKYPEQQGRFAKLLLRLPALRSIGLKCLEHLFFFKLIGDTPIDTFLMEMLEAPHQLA

[13] = biological target: T1, Retinoic acid receptor gamma (Homo sapiens); assay: Agonist activity at Gal4-fused full length RARgamma LBD (unknown origin) transfected in HEK293T cells co-transfected with pG5luc reporter and Renilla-luc assessed as transactivation at 0.1 to 1 uM incubated for 12 hrs by luciferase reporter gene assay; assay type: cell-based; conditions: dose 0.1-1 µM
[14] = biological target: T3, Retinoic acid receptor RXR-beta (Homo sapiens); assay: Competitive binding affinity to Gal4-fused full length RXRbeta LBD (unknown origin) transfected in HEK293T cells co-transfected with pG5luc reporter and Renilla-luc assessed as inhibition of 9-cis-RA induced transactivation at 0.1 to 1 uM incubated for 12 hrs by luciferase reporter gene assay; assay type: cell-based; conditions: dose 0.1-1 µM
[15] = biological target: Oxysterols receptor LXR-alpha (Homo sapiens) (UniProt Q13133); assay: Agonist activity at Gal4-fused full length LXRalpha LBD (unknown origin) transfected in HEK293T cells co-transfected with pG5luc reporter and Renilla-luc at 0.1 to 1 uM incubated for 12 hrs by luciferase reporter gene assay; assay type: cell-based; conditions: dose 0.1-1 µM
Sequence of Oxysterols receptor LXR-alpha (Homo sapiens) (Q13133 whole entry, the tested form may be a part): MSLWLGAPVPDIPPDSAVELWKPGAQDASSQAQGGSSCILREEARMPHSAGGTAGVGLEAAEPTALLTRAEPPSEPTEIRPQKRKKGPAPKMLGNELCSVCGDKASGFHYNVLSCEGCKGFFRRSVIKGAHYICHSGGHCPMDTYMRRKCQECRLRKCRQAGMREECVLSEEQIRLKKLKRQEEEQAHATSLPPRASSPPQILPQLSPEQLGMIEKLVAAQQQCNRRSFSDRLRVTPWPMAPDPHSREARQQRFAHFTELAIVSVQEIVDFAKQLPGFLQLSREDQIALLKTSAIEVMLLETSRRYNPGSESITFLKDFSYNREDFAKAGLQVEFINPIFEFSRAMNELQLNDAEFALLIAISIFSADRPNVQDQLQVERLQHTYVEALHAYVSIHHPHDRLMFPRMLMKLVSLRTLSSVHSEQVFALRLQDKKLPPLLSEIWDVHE

[16] = system: NB-4; assay: Induction of cell death in M phase synchronized human NB4 cells assessed as reduction in mitotic cells at 0.5 uM preincubated for 4 days followed by release from thymidine block for 10 hrs by immunofluorescence staining based analysis; assay type: functional; conditions: time 106.0 hrs

| Activity [5] | Emax [6] | Kd [11] | Activity [13] | Activity [14] | Activity [15] | Compound | Activity [1] | Activity [2] | inhibition (INH) [3] | Activity [4] | Activity [7] | Activity [8] | Activity [9] | Activity [10] | Activity [12] | Activity [16] |
| --- | --- | --- | --- | --- | --- | --- | --- | --- | --- | --- | --- | --- | --- | --- | --- | --- |
| Minimal_effect | 15% | 433 nM | Weak_effect | Weak_effect | Minimal_effect | Cc1cc2c(cc1C(=O)/C(Br)=C/c1ccc(C(=O)O)cc1)C(C)(C)CCC2(C)C | Active | Active | 100% | inactive | 7% | Active | inactive | 2.27% | Not active; No Significant Competitive Effect On Atra Activation Observed | Active |
| Minimal_effect | 2% | 553 nM | Weak_effect | Weak_effect | Minimal_effect | Cc1cc2c(cc1C(=O)/C(Br)=C\c1ccc(C(=O)O)cc1)C(C)(C)CCC2(C)C | Active | Active | 100% | inactive | 8% | Active | inactive | 3.03% | Not active; No Significant Competitive Effect On Atra Activation Observed | Active |
